Patent US20120208182A1, “GENETIC TEST FOR LIVER COPPER ACCUMULATION IN DOGS AND LOW COPPER PET DIET” (priority 2009, published 2012)

Key:
[1] = Pharmacokinetic study of oral zinc gluconate, plasma zinc by atomic absorption spectrometry; assay type: in vivo, Labrador Retrievers; conditions: for V_F: volume of distribution: food withheld 12 h before dosing
Description: Two unrelated nine-year old, healthy Labrador Retrievers (1 female and 1 male) were used in a pharmacokinetic study. Food was withheld for a 12-hour period prior to oral administration of zinc, and during the initial 6-hour testing period. Water was freely available. […] Heparinized blood samples (4 ml) were collected from the jugular vein before dosing (time 0) and 15, 30, 45, 60, 90, 120 minutes, and 4, 8, 12 and 24 hours after application of the drug. Plasma was stored at
−20° C. until analysis for zinc using atomic absorption spectrometry. […]

Labrador Retrievers [2] = assay: Diet trial with randomized, placebo-controlled zinc application: quantitative hepatic copper by neutron activation analysis; assay type: in vivo, dog; conditions: 7.5 mg/kg PO BID versus placebo, all dogs on diet
Description: (§1) All dogs were fed the same diet. […] The pharmacist was the only person aware of group allocations until completion of the study. Hepatic copper concentrations and histopathology were assessed along with clinical examinations and blood-work before and after treatment for a mean of 8 months (range 5-13), and 16 months (range 12-25). Plasma zinc concentrations were measured at additional time points during treatment.
All dogs had completed their treatment with penicillamine prior to the start of this study. A medical history was obtained from all dogs and a physical examination was performed. […] Two biopsies were fixed in 10 percent neutral buffered formalin, and one biopsy was stored in a copper-free container for quantitative copper determination.
A quantitative assay for copper in liver tissue was performed by neutron activation analysis, according to a protocol described by Teske et al, using the facilities described by Bode (Bode, P. (1990) Journal of Trace and Microprobe Techniques 8: 139; Teske et al. (1992) Vet Rec 131: 30-32). Quantitative copper concentrations were measured in lyophilised liver biopsies and reported in mg/kg dry weight liver.
All dog owners were provided with the same specially manufactured diet. […] Metabolizable energy (measured according to Association of American Feed Control Officials protocol): 1650 kcal/kg as fed). […]

[3] = Diet trial: blood examinations (bile acids, ALP, ALT, plasma zinc); assay type: in vivo, dog
Description: as §1
All dogs had completed their treatment with penicillamine prior to the start of this study. A medical history was obtained from all dogs and a physical examination was performed. Na-citrated blood samples were taken for analysis of a coagulation profile, including prothrombin time (PT), activated partial thromboplastin time (aPTT) and fibrinogen. Heparin- and EDTA-blood was sampled for analysis of the hepatobiliary enzymes alkaline phosphatase (ALP), alanine aminotransferase (ALT), of bile acids (BA), and for measurement of the platelet count, and plasma zinc concentrations. Liver biopsies were taken according to the Menghini technique given by Rothuizen (Rothuizen J, I. T. (1998) Tijdschr Diergeneeskd 123: 246-252). At least three liver biopsies were taken from each dog. Two biopsies were fixed in 10 percent neutral buffered formalin, and one biopsy was stored in a copper-free container for quantitative copper determination.

Labrador Retrievers [4] = assay: Diet trial: observed adverse effects; assay type: in vivo, dog; conditions: in 3 dogs of group 1; immediately after the tablets, resolved when tablets were mixed with the diet
Description: as §1
Owners were instructed to give the tablets mixed with small amounts of their diet 30 minutes before feeding. Neither the owner nor the clinician was informed about which treatment each dog received.

Labrador Retrievers [5] = assay: Hepatic copper before penicillamine, after penicillamine and after diet (Example 5, FIG. 3); assay type: in vivo, dog; conditions: all dogs on diet, data not shown
Description: FIG. 3 illustrates the effectiveness of the diet of the invention on hepatic copper concentrations (mg/kg dry weight) in 18 Labrador Retrievers compared with the effect of penicillamine alone. The key to the x-axis is as follows: 1=pre-penicillamine, 2=post-penicillamine/pre-food, 3=post-food. […] The dotted line represents the normal level of hepatic copper for adult dogs.
During an investigation of the effect of zinc on hepatic copper concentration, hepatic copper concentration was measured in 18 pure-bred Labrador Retrievers. Half of the dogs were provided with a supplement of zinc and the other half were provided with a placebo. All of the dogs were fed the diet of Example 2. Hepatic copper concentration was measured using the method of Example 2 at 3 time points: (1) before treatment with penicillamine; (2) after treatment with penicillamine but before treatment with the diet of Example 2; and (3) after the diet treatment.

Substance: zinc gluconate
- AUC: area under the curve ([1]; Dog 1, 10 mg/kg oral): 63350 ng·h/mL
- K01: absorption rate constant ([1]; Dog 1, 10 mg/kg oral): 0.5672 h⁻¹
- K10: elimination rate constant ([1]; Dog 1, 10 mg/kg oral): 0.05373 h⁻¹
- Tmax: time of maximum concentration ([1]; Dog 1, 10 mg/kg oral): 4.59 h
- V_F: volume of distribution ([1]; Dog 1, 10 mg/kg oral): 2937.872 ml/kg bodyweight
- AUC: area under the curve ([1]; Dog 2, 5 mg/kg oral): 51990 ng·h/mL
- K01: absorption rate constant ([1]; Dog 2, 5 mg/kg oral): 1.161 h⁻¹
- K10: elimination rate constant ([1]; Dog 2, 5 mg/kg oral): 0.03789 h⁻¹
- Tmax: time of maximum concentration ([1]; Dog 2, 5 mg/kg oral): 3.048 h
- V_F: volume of distribution ([1]; Dog 2, 5 mg/kg oral): 2538.689 ml/kg bodyweight
- calculated accumulation rate R ([1]; R=1/(1−exp(−k10*24))): 1.52
- apparent oral clearance (CL/F), mean of both dogs ([1]; mean of dog 1 and dog 2): 2.116898 mL/min/kg
- effect of adjunctive zinc on hepatic copper decrease by diet (Labrador Retrievers [2]): did not amplify the de-coppering effect
- plasma zinc concentration, group 1 versus group 2 ([3]; at any of the three examinations (start, recheck-1, recheck-2)): No difference
- mean plasma zinc concentration ([3]; group 1, after the initial month of treatment, sampled 2-6 hours after zinc application, start 95): 165 µg/dL
- adverse effects (Labrador Retrievers [4]): Vomiting, anorexia, and diarrhea
- copper levels in dogs treated with zinc versus placebo (Labrador Retrievers [5]): no significant difference
